Several values for one entry are separate records, joined by “and”; a condition that tells them apart may be missing. Equal values may be shown once. A value given as a limit tells only on which side of the number the result lay.

What is called viability, T/C is the result in the treated group divided by that in the control group, in per cent. The term IC50 denotes the concentration at which inhibition is half-maximal.

In this assay the test system is MDA-MB-231 multicell spheroids, viability. Kind of assay: Anticancer human tumor MDA-MB-231 cell line growth inhibition [PI3K].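 As to all read-outs here: spheroids exposed to agents for seven days before reading.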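 As to viability, T/C: percent of vehicle control luminescence with DMSO treated spheroids as 100%.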 To be noted: for viability, T/C: stronger effect = lower value. From the text: Combinatorial screen of targeted agents with the PI3K inhibitors inavolisib, alpelisib, duvelisib, and copanlisib in multi-cell type tumor spheroids
A high-throughput screen of multi-cell type tumor spheroids was designed to identify active combinations of targeted small molecules and PI3K pathway inhibitors. Complex spheroids include a stromal component modeled by human endothelial cells (HUVEC) and fibroblasts modeled by human mesenchymal stem cells (MSCs). The concentration ranges selected for each drug and investigational agent were based upon clinically achievable concentrations if the clinical Cmax of the agent was known.
Compounds. The drugs and investigational agents: inavolisib (NSC800729), alpelisib (NSC765974), duvelisib (NSC772469), copanlisib (NSC816437), ipatasertib (NSC767898), afuresertib (NSC778305), talazoparib (NSC767125), sapanisertib (NSC764658), selumetinib (NSC741078), tovorafenib (DAY101, NSC766906), vemurafenib (NSC761431), ravoxertinib (NSC781343), sotorasib (NSC818433), MRTX1133 (NSC 836407), abemaciclib (NSC 768073), palbociclib (NSC758247), venetoclax (NSC 766270), SY5609 (NSC837396), enzalutamide (NSC755605), and darolutamide (NSC825331), were obtained from the National Cancer Institute (NCI) Developmental Therapeutics Program Chemical Repository. The FDA-approved anticancer drug set is available from the NCI Developmental Therapeutics Program. […] The stock solutions were prepared in dimethyl sulfoxide (DMSO, Sigma-Aldrich, St. Louis, MO, cat. D2650) at 800-fold the tested concentration and stored at -70 degrees C prior to their use. All drugs and investigational agents were tested over a range starting from a high concentration at or near the clinical Cmax and decreasing in half-log increments. If the clinical Cmax for an agent had not been determined, the highest concentration tested was 10 microM.
Cell Culture. All cells were maintained in an incubator at 37 degrees C and 5% CO2 with 95% humidity. The PDC lines were cultured according to standard operating procedures established by the NCI PDMR (https://pdmr.cancer.gov/sops/default.htm). All PDCs were thawed and cultured in Matrigel-coated flasks prepared with a working solution of 1X Ham's F-12 nutrient mix, without supplementation (Invitrogen, Waltham, MA, cat. 11765054), 100 U/mL penicillin-streptomycin (Invitrogen, cat. 15140122), and 2.5% Matrigel (Corning Inc., Corning, NY, cat. 354248) for the first three passages. The 354836-022-R-J1-PDC, 475296-252-R-J1-PDC, and 997726-040-R-J2-PDC lines were cultured in 6A media, which includes advanced DMEM/F-12 (Thermo Fisher Scientific, cat. 12634028), 10 mM HEPES (Thermo Fisher Scientific, cat. 15630080), 1X GlutaMAX supplement (Thermo Fisher Scientific, cat. 35050061), 0.1 mg/mL primocin (InvivoGen, San Diego, CA, cat. ant-pm-2), 10% defined fetal bovine serum, heat inactivated (HyClone Laboratories Inc., Logan, UT, cat. SH30070.03HI), 50% L-WRN conditioned media (ATCC, cat. CRL-3276), 1.25 mM N-Acetyl-L-cysteine (Sigma-Aldrich, cat. A9165), 10 mM nicotinamide (Sigma-Aldrich, cat. N0636), 1X B-27 supplement (Thermo Fisher Scientific, cat. 17504044), 1X N-2 supplement (Thermo Fisher Scientific, cat. 17502048), and 10 microM Y-27632 dihydrochloride (Tocris Bioscience, Bristol, United Kingdom, cat. 1254). The 624824-186-R-J2-PDC line was cultured in 6C/Colon 1B media, which includes all 6A media components plus 50 ng/mL human EGF recombinant protein (Thermo Fisher Scientific, cat. PHG0311). […]

[1] abbreviates: compound alone, run of 05/08/2023.

As to `CC(=O)c1c(C)c2cnc(Nc3ccc(N4CCNCC4)cn3)nc2n(C2CCCC2)c1=O`, the viability, T/C was 105% [middle of 4 runs] (compound 0.000316 µM); 104% and 100% and 103% (2×) (compound 0.001 µM); 101% [middle of 4 runs] (compound 0.00316 µM); 90% [middle of 4 runs] (compound 0.01 µM); 79.7% [middle of 4 runs] (compound 0.0316 µM); 49.9% [middle of 4 runs] (compound 0.1 µM). Moreover, for the setting “curve of compound”, the IC50 was 0.098 µM and 0.0916 µM and > 0.1 µM.
Take `CC(C)NCC(C(=O)N1CCN(c2ncnc3c2C(C)CC3O)CC1)c1ccc(Cl)cc1` (configuration not stated): the viability, T/C is 114% [middle of 4 runs] (compound 0.0316 µM); 102% [middle of 4 runs] (compound 0.1 µM); 97.3% [middle of 4 runs] (compound 0.316 µM); 87.9% [middle of 4 runs] (compound 1 µM); 70.9% [middle of 4 runs] (compound 3.16 µM); 49.8% [middle of 4 runs] (compound 10 µM). The IC50 (curve of compound) was > 10 µM and 8.95 µM and 7.84 µM.
With `CC(C)n1nc(-c2ccc3oc(N)nc3c2)c2c(N)ncnc21`, the viability, T/C is 107% [middle of 4 runs] (compound 0.000316 µM); 99.7% [middle of 4 runs] (compound 0.001 µM); 104% and 101% (2×) and 97.3% (compound 0.00316 µM); 84.7% [middle of 4 runs] (compound 0.01 µM); 67.4% [middle of 4 runs] (compound 0.0316 µM); 38.8% [middle of 4 runs] (compound 0.1 µM). Besides, for the setting “curve of compound”, the IC50 is 66.7 nM [middle of 4 runs].
Consider `CC(Cn1ccc(-c2ccc(C#N)c(Cl)c2)n1)NC(=O)c1cc(C(C)O)[nH]n1` (configuration not stated), for which the viability, T/C is, setting by setting: (compound 0.0316 µM) 106% [middle of 4 runs]; (compound 0.1 µM) 99% [middle of 4 runs]; (compound 0.316 µM) 111% [middle of 4 runs]; (compound 1 µM) 107% [middle of 4 runs]; (compound 3.16 µM) 100% [middle of 4 runs]; (compound 10 µM) 92.5% [middle of 4 runs]. For the same compound, where the note is “curve of compound”, the IC50 was above 10 µM.
In the case of `CC(Nc1ccc2c(c1)OCCn1cc(N3C(=O)OCC3C(F)F)nc1-2)C(N)=O` (configuration not stated), the viability, T/C is, setting by setting: (compound 0.00316 µM) 103% [middle of 8 runs]; (compound 0.01 µM) 96.1% [middle of 8 runs]; (compound 0.0316 µM) 81.9% [middle of 8 runs]; (compound 0.1 µM) 72.1% [middle of 8 runs]; (compound 0.316 µM) 64.8% [middle of 8 runs]; (compound 1 µM) 64.2% [middle of 8 runs]. Also, the concentration for half-maximal inhibition (IC50) under setting [1] is above 1 µM.
Turning to `CC(Nc1ncnc2nc[nH]c12)c1cc2cccc(Cl)c2c(=O)n1-c1ccccc1` (configuration not stated), the viability, T/C reads like this: (compound 0.0316 µM) 105% [middle of 8 runs]; (compound 0.1 µM) 100% [middle of 8 runs]; (compound 0.316 µM) 95.5% [middle of 8 runs]; (compound 1 µM) 82.7% [middle of 8 runs]; (compound 3.16 µM) 63.9% [middle of 8 runs]; (compound 10 µM) 50.6% [middle of 8 runs].
With `CC1(C)CCC(CN2CCN(c3ccc(C(=O)NS(=O)(=O)c4ccc(NCC5CCOCC5)c([N+](=O)[O-])c4)c(Oc4cnc5[nH]ccc5c4)c3)CC2)=C(c2ccc(Cl)cc2)C1`, the viability, T/C (compound 0.0316 µM) is 108% [middle of 4 runs]; the viability, T/C (compound 0.1 µM) is 103% [middle of 4 runs]; the viability, T/C (compound 0.316 µM) is 109% [middle of 4 runs]; the viability, T/C (compound 1 µM) was 113% [middle of 4 runs]; the viability, T/C (compound 3.16 µM) is 113% (2×) and 112% and 119%.
Consider `CCCS(=O)(=O)Nc1ccc(F)c(C(=O)c2c[nH]c3ncc(-c4ccc(Cl)cc4)cc23)c1F`, for which the viability, T/C (compound 0.0316 µM) was 113% [middle of 4 runs]; the viability, T/C (compound 0.1 µM) was 111% [middle of 4 runs]; the viability, T/C (compound 0.316 µM) is 104% [middle of 4 runs]; the viability, T/C (compound 1 µM) was 89.3% [middle of 4 runs]; the viability, T/C (compound 3.16 µM) is 68.9% [middle of 4 runs]; the viability, T/C (compound 10 µM) is 34.8% [middle of 4 runs]. Besides, the IC50 (curve of compound) is 5.82 µM [middle of 4 runs].
On to `CCN1CCN(Cc2ccc(Nc3ncc(F)c(-c4cc(F)c5nc(C)n(C(C)C)c5c4)n3)nc2)CC1`, for which the viability, T/C was 102% [middle of 4 runs] (compound 0.00316 µM); 97.1% [middle of 4 runs] (compound 0.01 µM); 87% [middle of 4 runs] (compound 0.0316 µM); 67% and 57.2% and 58.3% (2×) (compound 0.1 µM); 56.5% and 44.8% and 49.5% (2×) (compound 0.316 µM); 49.3% [middle of 4 runs] (compound 1 µM).
For `CNC(=O)c1ccc(N2C(=S)N(c3ccc(C#N)c(C(F)(F)F)c3)C(=O)C2(C)C)cc1F`, the viability, T/C (compound 0.0316 µM) was 110% [middle of 4 runs]; the viability, T/C (compound 0.1 µM) is 111% [middle of 4 runs]; the viability, T/C (compound 0.316 µM) is 113% [middle of 4 runs]; the viability, T/C (compound 1 µM) was 107% [middle of 4 runs]; the viability, T/C (compound 3.16 µM) was 98.3% [middle of 4 runs]; the viability, T/C (compound 10 µM) was 88.7% [middle of 4 runs]. Besides, under “curve of compound”, the IC50 was above 10 µM.
In the case of `COc1c(OCCCN2CCOCC2)ccc2c3n(c(=NC(=O)c4cnc(N)nc4)nc12)CCN3`, the viability, T/C (compound 0.00316 µM) is 99.7% [middle of 8 runs]; the viability, T/C (compound 0.01 µM) was 79.4% [middle of 8 runs]; the viability, T/C (compound 0.0316 µM) was 61.3% [middle of 8 runs]; the viability, T/C (compound 0.1 µM) was 46.3% [middle of 8 runs]; the viability, T/C (compound 0.316 µM) is 31.6% [middle of 8 runs]; the viability, T/C (compound 1 µM) was 26% [middle of 8 runs]. For the same compound, where the note is “compound alone, run of 05/09/2023”, the IC50 is 73.8 nM [middle of 8 runs].
Take `C[C@@H](NC(=O)c1ncnc(N)c1Cl)c1ncc(C(=O)Nc2cc(C(F)(F)F)c(Cl)cn2)s1`: the viability, T/C is 139% [middle of 4 runs] (compound 0.0316 µM), 77.3% [middle of 4 runs] (compound 3.16 µM) and 64.8% [middle of 4 runs] (compound 10 µM). The IC50 (curve of compound) was above 10 µM.
Consider `Cc1nc(NC(=O)N2CCCC2C(N)=O)sc1-c1ccnc(C(C)(C)C(F)(F)F)c1` (configuration not stated), for which the viability, T/C was 98.2% [middle of 8 runs] (compound 0.0316 µM); 88.9% [middle of 8 runs] (compound 0.1 µM); 75.4% [middle of 8 runs] (compound 0.316 µM); 71.2% [middle of 8 runs] (compound 1 µM); 64.6% [middle of 8 runs] (compound 3.16 µM); 63% [middle of 7 runs] (compound 10 µM). Besides, the IC50 under setting [1] was above 10 µM.
For the compound `Cn1cnc2c(F)c(Nc3ccc(Br)cc3Cl)c(C(=O)NOCCO)cc21`, the viability, T/C (compound 0.00949 µM) is 72.7% [middle of 4 runs]; the viability, T/C (compound 0.03 µM) is 64.9% [middle of 4 runs]; the viability, T/C (compound 0.0949 µM) is 59.5% and 57.3% (2×) and 57.6%; the viability, T/C (compound 0.3 µM) was 53.2% [middle of 4 runs]; the viability, T/C (compound 0.949 µM) was 47.3% [middle of 4 runs]; the viability, T/C (compound 3 µM) was 34.5% [middle of 4 runs]. Further, for the setting “curve of compound”, the half-maximal inhibitory concentration (IC50) is 431 nM [middle of 4 runs].
With `Cn1ncnc1[C@H]1c2n[nH]c(=O)c3cc(F)cc(c23)N[C@@H]1c1ccc(F)cc1`, the viability, T/C by setting is: (compound 0.000316 µM) 114% and 106% and 107% (2×); (compound 0.00316 µM) 95.2% [middle of 4 runs]; (compound 0.01 µM) 92.4% [middle of 4 runs]; (compound 0.0316 µM) 94% [middle of 4 runs]; (compound 0.1 µM) 88.7% [middle of 4 runs]. Also, the half-inhibitory concentration (IC50) (curve of compound) is above 0.1 µM.

(Values after PubChem BioAssay AID1963958 (Molecular Pharmacology Branch, DTP, NCI, 2024).)
